Here are results for 5 molecules from patent US12691116B2, “SETBP1 and XPO1 inhibitors for the treatment of sickle cell disease and β-thalassemia” (The Henry M. Jackson Foundation for the Advancement of …, priority 2019, dated 2026).

Each structure is given as a SMILES string.

Test [1] relates to SETBP1 interaction with XPO1. Particulars: cited from earlier work.
The subject of a further test is human erythroid cells. The test can be described thus: Erythroid differentiation of human mobilized CD34+ cells, real-time RT-PCR of globin mRNA. Format: cell-based. Conditions: human erythroid cells from CD34+ cells, treatment from day 5 of expansion, harvested day 10 of differentiation. The source says:
Human CD34^+ cells mobilized by granulocyte-colony stimulating factor (G-CSF) were induced to undergo erythroid differentiation in culture. Treatment with Compound 1AA and 1BB at indicated concentrations or vehicles (DMSO or water) were started at day 5 of expansion condition. Erythroid cells were harvested at day 10 of differentiation condition for real-time RT-PCR analysis of human embryonic […] (FIG. 8A), fetal γ (FIG. 8B), and adult β (FIG. 8C) hemoglobin mRNA levels. Relative expression levels were calculated by normalizing to RPL4 mRNA levels in the same sample and also to cells treated with DMSO. (FIG. 8D) Representative bar graphs showing mRNA levels of human embryonic and fetal hemoglobin (γ+ε) as a percentage of total β-like globin (β+γ+ε) mRNA levels after treatment with Compound 1AA and 1BB versus DMSO. Note that a level of 20% or above for embryonic and fetal hemoglobin is considered curative for sickle cell disease. **, P<0.01; ***, P<0.001; ****P<0.0001 (two-tailed Student's t test).
(§1) For studies using MEL cells, the cells were treated with selected inhibitors or vehicle in a culture medium (RPM 11640 medium with 10% fetal bovine serum) for 48 hours and were subsequently harvested for analysis of relative mRNA levels of Hbb-bh1, Hbb-y, and Hbb-b1 using real-time RT-PCR. For studies using primary human CD34+ hematopoietic stem and progenitor cells, the cells were treated with inhibitors or vehicle following or concurrent with induction of erythroid differentiation using an established two-phase culture protocol (Xu et al., Genes & Development 24(8): 783-798 (2010)). Relative mRNA levels of β-like globin genes in human cells after treatment were also analyzed using real-time RT-PCR.
Primary human mobilized CD34^+ cells were initially cultured in expansion medium containing StemSpan SFEM Medium (StemCell Technologies Inc.) with 1×CC100 cytokine mix (StemCell Technologies Inc.) and 2% Penicillin-Streptomycin (Life Technologies Inc.). Cells were maintained in this expansion medium at a density of 0.1-1×10^6 cells/mL for a total of six days with media changes every two days. On day 6, cells were transferred into differentiation medium containing StemSpan SFEM Medium with 2% Penicillin-Streptomycin, 20 ng/ml SCF (Biolegend), 1 U/ml EPO (Amgen), 5 ng/ml IL-3 (Biolegend), 2 μM dexamethasone (Sigma), and 1 μM β-estradiol (Sigma). Cells were maintained at a density of 0.1-1×10^6 cells/mL in differentiation medium for 10 days with media changes every two days. Drug treatments were started at day 5 of expansion condition and maintained thereafter. Fresh drugs were added at each medium change.
(In general: In qPCR the cycle at which signal appears reflects the starting amount.)

The subject of test [2] is MEL cells. The test can be described thus: Real-time RT-PCR of Hbb-bh1, Hbb-y and Hbb-b1 mRNA in MEL cells after 48 hours of treatment. Particulars: for increase in Hbb-bh1 (embryonic hemoglobin) mRNA level / increase in Hbb-y (fetal hemoglobin) mRNA level: 0.1 μM, 48 hours, relative to vehicle, normalized to Rpl4; for effect on Hbb-bh1 mRNA level (in words) / effect on Hbb-y mRNA level (in words): 48 hours of treatment at indicated concentration. Format: cell-based, mouse. The method, then: Real-time RT-PCR analysis of Hbb-bh1, Hbb-y, and Hbb-b1 mRNA levels in MEL cells after 48 hours of treatment with compound 1AA at indicated concentration or with control DMSO. Relative expression levels were calculated by normalizing to Rpl4 mRNA levels in the same sample and also to cells […] with DMSO. […]
Relative expression levels were calculated by normalizing to Rpl4 mRNA levels in the same sample and also to cells treated with DMSO.
as §1

Test [3] has as its system MEL cells. The test can be described thus: Real-time RT-PCR of hemoglobin mRNA in MEL cells 48 hours after removal of compound (24 hours treatment). It is filed as cell-based, mouse. Conditions: treated 24 hours, examined 48 hours after removal. Here is the method:
Real-time RT-PCR analysis of Hbb-bh1, Hbb-y, and Hbb-b1 mRNA levels in MEL cells 48 hours after removal of Compound (1AA) or KPT-185 from culture. The cells were first treated with Compound (1AA) or KPT-185 for 24 hours. Relative expression levels were calculated by normalizing to Rpl4 mRNA levels in the same sample and also to cells treated with DMSO.
A further experiment examined whether continuous treatment of Compound (1AA) and KPT-185 as exemplary SETBP1 and XPO1 inhibitors, respectively, was required for activation of Hbb-bh1 and Hbb-y expression. MEL cells were treated with Compound (1AA) and KPT-185 for 24 hours and the Hbb-bh1 and Hbb-y mRNA levels were then examined at 48 hours after their removal.

A further test concerns the target SETBP1 (Homo sapiens, UniProt Q9Y6X0). Conditions: cited from earlier work.

Sequence of SETBP1 (Q9Y6X0 whole entry): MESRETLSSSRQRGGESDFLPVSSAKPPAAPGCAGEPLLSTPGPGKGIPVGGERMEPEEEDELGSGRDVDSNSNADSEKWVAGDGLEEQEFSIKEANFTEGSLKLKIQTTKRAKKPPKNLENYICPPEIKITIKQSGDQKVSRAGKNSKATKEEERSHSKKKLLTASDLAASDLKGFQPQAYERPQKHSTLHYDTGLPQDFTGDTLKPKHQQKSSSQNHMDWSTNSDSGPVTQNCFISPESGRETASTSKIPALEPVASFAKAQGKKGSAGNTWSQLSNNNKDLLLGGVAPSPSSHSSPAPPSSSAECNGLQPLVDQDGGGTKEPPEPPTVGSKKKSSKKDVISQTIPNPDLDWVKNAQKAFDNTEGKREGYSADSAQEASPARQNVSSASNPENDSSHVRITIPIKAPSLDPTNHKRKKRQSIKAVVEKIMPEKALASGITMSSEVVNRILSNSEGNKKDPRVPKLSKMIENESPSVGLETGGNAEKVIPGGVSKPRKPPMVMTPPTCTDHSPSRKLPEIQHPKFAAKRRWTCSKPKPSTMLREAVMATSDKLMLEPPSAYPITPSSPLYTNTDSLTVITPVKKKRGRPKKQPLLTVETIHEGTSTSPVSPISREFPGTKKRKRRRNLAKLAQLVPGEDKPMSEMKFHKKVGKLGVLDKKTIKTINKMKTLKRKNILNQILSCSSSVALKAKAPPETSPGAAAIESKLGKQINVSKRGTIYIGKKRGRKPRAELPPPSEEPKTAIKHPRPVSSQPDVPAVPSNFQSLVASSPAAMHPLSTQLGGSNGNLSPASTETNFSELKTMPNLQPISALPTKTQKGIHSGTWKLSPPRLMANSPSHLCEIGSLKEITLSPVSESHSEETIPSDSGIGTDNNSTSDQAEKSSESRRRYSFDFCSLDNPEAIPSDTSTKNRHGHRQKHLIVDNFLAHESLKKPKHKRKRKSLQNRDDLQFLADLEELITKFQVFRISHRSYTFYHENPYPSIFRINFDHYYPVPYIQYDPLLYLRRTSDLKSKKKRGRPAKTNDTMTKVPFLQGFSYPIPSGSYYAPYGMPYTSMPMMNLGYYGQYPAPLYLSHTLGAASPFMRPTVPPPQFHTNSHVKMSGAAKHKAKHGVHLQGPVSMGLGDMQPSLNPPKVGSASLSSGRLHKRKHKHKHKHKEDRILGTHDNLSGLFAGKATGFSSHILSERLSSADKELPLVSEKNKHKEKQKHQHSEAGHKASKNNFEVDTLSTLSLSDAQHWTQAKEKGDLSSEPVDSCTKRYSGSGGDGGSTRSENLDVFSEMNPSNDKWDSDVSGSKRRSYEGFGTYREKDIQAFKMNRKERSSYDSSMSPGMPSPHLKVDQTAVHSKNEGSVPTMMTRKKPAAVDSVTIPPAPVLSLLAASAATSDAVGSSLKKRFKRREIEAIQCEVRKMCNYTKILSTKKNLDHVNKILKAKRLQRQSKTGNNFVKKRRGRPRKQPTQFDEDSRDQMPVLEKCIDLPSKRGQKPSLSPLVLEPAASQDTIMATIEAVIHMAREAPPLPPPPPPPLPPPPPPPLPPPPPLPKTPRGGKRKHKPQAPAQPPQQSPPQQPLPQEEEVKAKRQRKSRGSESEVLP

Consider `Cc1c2cc[n+](CCN3CCCCC3)cc2c(C)c2c1[nH]c1ccc(O)cc12.[Br-]` [Compound (1AA)], for which the “blocking of SETBP1 interaction with cofactor XPO1” value in test [1] was “blocking”. Also, in the test with human erythroid cells, the “human embryonic hemoglobin mRNA level” value is on record as “significantly increased” and the “human fetal γ hemoglobin mRNA level” value is “significantly increased”. Also, in the test on MEL cells [2], the “increase in Hbb-bh1 (embryonic hemoglobin) mRNA level” value is greater than 8 fold and the “increase in Hbb-y (fetal hemoglobin) mRNA level” value was greater than 8 fold. Besides, the “effect on adult hemoglobin Hbb-b1 mRNA level” value with MEL cells [2] (48 hours of treatment) was “only minor changes”. For the same molecule, in the test with MEL cells [3], the “Hbb-bh1 mRNA level after removal of compound” value is “Significantly elevated levels” and the “Hbb-y mRNA level after removal of compound” value was “Significantly elevated levels”. For the same molecule, the “inhibition of SETBP1 (transcriptional activity)” value on SETBP1 is “inhibitor”.

Regarding `CCN(CC)CC[n+]1ccc2c(C)c3[nH]c4ccc(O)cc4c3c(C)c2c1.[Cl-]` [Compound (1BB)], in the test on human erythroid cells, the “human embryonic hemoglobin mRNA level” value was “significantly increased” and the “human fetal γ hemoglobin mRNA level” value was “significantly increased”. Besides, the “effect on adult hemoglobin Hbb-b1 mRNA level” value in the test with MEL cells [2] (48 hours of treatment) was “minor effects”. In the test with MEL cells [2], the “effect on Hbb-bh1 mRNA level (in words)” value is “significantly increase” and the “effect on Hbb-y mRNA level (in words)” value is given as “significantly increase”. Also, the “inhibition of SETBP1 (transcriptional activity)” value on SETBP1 is “inhibitor”.

For `COc1cc(-c2ncn(/C=C\C(=O)OC(C)C)n2)cc(C(F)(F)F)c1` [KPT-185, reference compound], in the test on MEL cells [2], the “increase in Hbb-bh1 (embryonic hemoglobin) mRNA level” value was “over 60 fold” and the “increase in Hbb-y (fetal hemoglobin) mRNA level” value is reported as “over 14 fold”. Moreover, in the test with MEL cells [2] (48 hours of treatment), the “Hbb-bh1 mRNA level compared to cells treated with hydroxyurea” value is listed as roughly 30 fold. Moreover, in the test on MEL cells [3], the “Hbb-bh1 mRNA level after removal of compound” value is on record as “Significantly elevated levels” and the “Hbb-y mRNA level after removal of compound” value is recorded as “Significantly elevated levels”.

With `O=C(/C=C\n1cnc(-c2cc(C(F)(F)F)cc(C(F)(F)F)c2)n1)NNc1cnccn1` [KPT-330, reference compound], the “effect on Hbb-y mRNA level (in words)” value with MEL cells [2] is “significantly increase”.

For `NC(=O)/C(=C/n1cnc(-c2cc(C(F)(F)F)cc(C(F)(F)F)c2)n1)c1cncnc1` [KPT-8602, reference compound], in the test with MEL cells [2], the “effect on Hbb-bh1 mRNA level (in words)” value was “significantly increase” and the “effect on Hbb-y mRNA level (in words)” value is on record as “significantly increase”.
